Source: patent US20240018158A1, “BRM TARGETING COMPOUNDS AND ASSOCIATED METHODS OF USE” (Prelude Therapeutics Incorporated, priority 2020, published 2024)

Key:
SMARCA2 = SMARCA2 (Homo sapiens (Human), UniProt P51531); experiment: SMARCA2 HiBiT degradation assay in HeLa cells; format: cell-based; details: 18 hours; for DC50: read-out: DC50 (SM2-HeLa) SMARCA2 degradation potency; for Dmax: read-out: Dmax % (SM2-HeLa) maximum SMARCA2 degradation within the concentrations tested
Method: (§1) HiBiT peptide knock-in of SMARCA2 in LgBiT expressing HEK293T cells was performed by CRISPR-mediated tagging system as described Promega. The homozygous HiBiT knock-in on c-terminus SMARCA2 was confirmed by sanger sequence. SMARCA2-HiBiT knock-in Hela monoclonal cell (CS302366) and SMARCA4-HiBiT knock-in Hela monoclonal cell (CS3023226) were purchased from Promega. The heterozygous HiBiT-knock-in was confirmed by sanger sequence in both SMARCA2-HiBiT and SMARCA4-HiBiT monoclonal cells.
(§2) Dispense 10 μL aliquot of prepared Hela-SMARCA2-HiBiT or Hela-SMARCA4-HiBiT cells (1:1 ratio of cells:Trypan Blue (#1450013, Bio-Rad)) onto cell counting slide (#145-0011, Bio-Rad) and obtain cell density and cell viability using cell counter (TC20, Bio-Rad). Remove appropriate volume of resuspended cells from culture flask to accommodate 2500 cells/well @ 20 μL/well. Transfer Hela-HiBiT cells to 50 ml conical (#430290, Corning). Spin down at 1000 rpm for 5 min using tabletop centrifuge (SPINCHRON 15, Beckman). Discard supernatant and resuspend cell pellet in modified EMEM (#30-2003, ATCC) cell culture media containing 10% FBS (F2422-500ML, Sigma), and 1×Penicillin/Streptomycin (200 g/1) (30-002-CI, Corning) to a cell density of 125,000 cells/ml. Dispense 20 μL of resuspended Hela-HiBit cells per well in 384-well TC treated plate (#12-565-343, Thermo Scientific) using standard cassette (#50950372, Thermo Scientific) on Multidrop Combi (#5840310, Thermo Scientific) inside laminar flow cabinet. Dispense test compounds onto plates using digital liquid dispenser (D300E, Tecan). Incubate plates in humidified tissue culture incubator @37° C. for 18 hours. Add 20 ul of prepared Nano-Glo® HiBiT Lytic detection buffer (N3050, Promega) to each well of 384-well plate using small tube cassette (#24073295, Thermo Scientific) on Multidrop Combi, incubate @ RT for 30-60 min. Read plates on microplate reader (Envision 2105, PerkinElmer) using 384 well Ultra-Sensitive luminescence mode. Raw data files and compound information reports are swept into centralized data lake and deconvoluted using automated scripts designed by TetraScience, Inc. Data analysis, curve-fitting and reporting done in Dotmatics Informatics Suite using Screening Ultra module.

SMARCA4 = SMARCA4 (Homo sapiens (Human), UniProt P51532); experiment: SMARCA4 HiBiT degradation assay in HeLa cells; format: cell-based; details: 18 hours; for DC50: read-out: DC50 (SM4-HeLa) SMARCA4 degradation potency; for Dmax: HeLa, read-out: Dmax % (SM4-HeLa) maximum SMARCA4 degradation within the concentrations tested
Method: as §1, §2

Chain of SMARCA4 (P51532 whole entry): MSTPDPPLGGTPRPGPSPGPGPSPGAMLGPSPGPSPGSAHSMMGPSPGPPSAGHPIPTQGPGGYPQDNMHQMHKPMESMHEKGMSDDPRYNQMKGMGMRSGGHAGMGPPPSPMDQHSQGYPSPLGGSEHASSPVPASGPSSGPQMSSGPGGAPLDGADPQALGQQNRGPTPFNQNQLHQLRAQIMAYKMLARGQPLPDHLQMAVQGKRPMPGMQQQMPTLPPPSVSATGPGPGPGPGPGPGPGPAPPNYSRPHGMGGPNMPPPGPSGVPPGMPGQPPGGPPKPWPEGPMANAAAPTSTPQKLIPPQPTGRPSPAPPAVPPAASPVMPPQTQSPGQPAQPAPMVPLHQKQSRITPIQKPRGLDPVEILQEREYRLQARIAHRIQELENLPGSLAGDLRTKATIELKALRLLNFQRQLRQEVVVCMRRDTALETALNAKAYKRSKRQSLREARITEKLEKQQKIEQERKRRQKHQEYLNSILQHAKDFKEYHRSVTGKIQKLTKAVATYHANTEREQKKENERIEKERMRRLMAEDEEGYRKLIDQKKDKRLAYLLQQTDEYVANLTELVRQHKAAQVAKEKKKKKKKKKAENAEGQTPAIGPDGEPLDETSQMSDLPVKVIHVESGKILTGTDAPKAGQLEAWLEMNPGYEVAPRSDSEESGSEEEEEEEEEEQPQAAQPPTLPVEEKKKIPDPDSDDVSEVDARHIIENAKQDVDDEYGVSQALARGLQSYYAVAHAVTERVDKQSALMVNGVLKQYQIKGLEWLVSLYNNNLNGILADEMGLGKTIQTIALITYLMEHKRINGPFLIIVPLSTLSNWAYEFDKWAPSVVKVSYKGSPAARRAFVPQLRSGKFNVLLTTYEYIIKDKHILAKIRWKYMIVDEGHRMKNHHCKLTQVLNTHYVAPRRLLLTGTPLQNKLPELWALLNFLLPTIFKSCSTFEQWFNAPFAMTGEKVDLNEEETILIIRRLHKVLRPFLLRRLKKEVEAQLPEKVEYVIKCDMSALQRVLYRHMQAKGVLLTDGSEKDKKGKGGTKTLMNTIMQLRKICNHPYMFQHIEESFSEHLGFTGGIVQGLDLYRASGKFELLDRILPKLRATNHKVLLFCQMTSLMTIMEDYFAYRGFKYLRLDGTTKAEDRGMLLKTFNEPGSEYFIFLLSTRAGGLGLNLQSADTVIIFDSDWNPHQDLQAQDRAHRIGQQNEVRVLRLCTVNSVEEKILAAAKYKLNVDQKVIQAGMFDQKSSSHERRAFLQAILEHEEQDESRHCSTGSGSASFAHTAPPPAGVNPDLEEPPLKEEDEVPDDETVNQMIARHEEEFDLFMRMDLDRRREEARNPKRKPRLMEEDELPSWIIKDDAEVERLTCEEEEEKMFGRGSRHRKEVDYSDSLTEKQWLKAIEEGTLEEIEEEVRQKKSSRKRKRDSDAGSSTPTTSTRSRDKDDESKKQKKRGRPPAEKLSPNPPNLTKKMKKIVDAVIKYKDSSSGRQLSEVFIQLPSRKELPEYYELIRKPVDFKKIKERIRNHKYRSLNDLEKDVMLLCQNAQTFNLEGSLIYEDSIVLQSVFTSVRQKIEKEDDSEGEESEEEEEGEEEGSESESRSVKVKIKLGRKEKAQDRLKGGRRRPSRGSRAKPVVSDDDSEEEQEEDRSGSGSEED
Chain of SMARCA2 (P51531 whole entry): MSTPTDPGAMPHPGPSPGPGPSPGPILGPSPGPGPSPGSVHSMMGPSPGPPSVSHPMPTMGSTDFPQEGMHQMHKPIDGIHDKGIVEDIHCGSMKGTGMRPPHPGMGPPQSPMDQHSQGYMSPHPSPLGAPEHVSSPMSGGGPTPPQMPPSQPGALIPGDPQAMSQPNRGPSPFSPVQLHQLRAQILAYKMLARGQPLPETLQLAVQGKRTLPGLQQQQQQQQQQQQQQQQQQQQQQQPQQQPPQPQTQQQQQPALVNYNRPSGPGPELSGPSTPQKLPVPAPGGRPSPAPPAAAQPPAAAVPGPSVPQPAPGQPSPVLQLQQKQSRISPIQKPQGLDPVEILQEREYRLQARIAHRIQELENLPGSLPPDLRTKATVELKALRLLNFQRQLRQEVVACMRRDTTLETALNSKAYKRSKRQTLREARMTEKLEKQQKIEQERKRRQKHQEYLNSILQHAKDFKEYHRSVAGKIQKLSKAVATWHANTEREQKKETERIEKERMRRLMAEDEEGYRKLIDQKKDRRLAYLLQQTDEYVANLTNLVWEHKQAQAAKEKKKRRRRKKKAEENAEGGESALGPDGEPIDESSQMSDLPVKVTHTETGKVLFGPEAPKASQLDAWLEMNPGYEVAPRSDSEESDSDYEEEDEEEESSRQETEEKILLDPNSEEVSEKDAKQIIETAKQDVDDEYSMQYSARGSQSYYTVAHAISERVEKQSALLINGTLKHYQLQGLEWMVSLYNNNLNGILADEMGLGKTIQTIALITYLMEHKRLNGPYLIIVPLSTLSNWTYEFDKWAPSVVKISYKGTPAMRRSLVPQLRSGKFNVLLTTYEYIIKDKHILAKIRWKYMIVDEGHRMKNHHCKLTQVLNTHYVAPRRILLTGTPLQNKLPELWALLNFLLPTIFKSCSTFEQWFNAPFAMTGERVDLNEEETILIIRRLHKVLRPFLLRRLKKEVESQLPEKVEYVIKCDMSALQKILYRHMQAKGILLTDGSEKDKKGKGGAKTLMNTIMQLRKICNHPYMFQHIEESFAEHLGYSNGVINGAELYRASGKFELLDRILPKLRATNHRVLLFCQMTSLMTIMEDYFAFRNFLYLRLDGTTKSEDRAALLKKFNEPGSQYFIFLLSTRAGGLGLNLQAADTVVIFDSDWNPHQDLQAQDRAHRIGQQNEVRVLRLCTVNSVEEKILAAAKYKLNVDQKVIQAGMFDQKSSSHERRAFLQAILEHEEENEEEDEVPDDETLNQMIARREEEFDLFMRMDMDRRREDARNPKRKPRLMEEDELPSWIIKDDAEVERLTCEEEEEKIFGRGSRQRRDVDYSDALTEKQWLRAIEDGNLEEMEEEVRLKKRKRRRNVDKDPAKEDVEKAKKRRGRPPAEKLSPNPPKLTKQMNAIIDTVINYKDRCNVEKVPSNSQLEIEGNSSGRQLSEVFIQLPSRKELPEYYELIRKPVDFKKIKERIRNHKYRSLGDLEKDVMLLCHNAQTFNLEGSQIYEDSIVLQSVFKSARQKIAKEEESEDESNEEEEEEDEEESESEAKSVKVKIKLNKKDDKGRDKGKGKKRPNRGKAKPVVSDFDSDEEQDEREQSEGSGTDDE

Dmax % (SM2-HeLa) maximum SMARCA2 degradation within the concentrations tested (SMARCA2)	DC50 (SMARCA2) [µM]	Dmax % (SM4-HeLa) maximum SMARCA4 degradation within the concentrations tested (SMARCA4)	DC50 (SMARCA4) [µM]	Dmax (SMARCA2) [%]	Dmax (SMARCA4) [%]	Structure (SMILES)
A/A (A = Dmax >75%)	< 0.1	A/A (A = Dmax >75%)	< 0.1	–	–	Cc1ncsc1-c1ccc([C@H](C)NC(=O)[C@@H]2C[C@@H](O)CN2C(=O)[C@@H](c2cc(O[C@@H](C)CN3CCC(N4CCN5c6cc(-c7ccccc7O)nnc6NC[C@H]5C4)C3)no2)C(C)C)cc1 (stereo partly drawn) [Example 49, (2S,4R)-4-hydroxy-1-((2R)-2-(3-(((2S)-1-(3-((S)-2-(2-hydroxyphenyl)-5,6,6a,7,9,10-hexahydro-8H-pyrazino[1′,2′:4,5]pyrazino[2,3-c]pyridazin-8-yl)pyrrolidin-1-yl)propan-2-yl)oxy)isoxazol-5-yl)-3-methylbutanoyl)-N-((S)-1-(4-(4-methylthiazol-5-yl)phenyl)ethyl)pyrrolidine-2-carboxamide]
–	< 0.1	B (B = 50%< Dmax <=75%)	< 0.1	> 75	–	CCC(CN1CCC(N2CCN3c4cc(-c5ccccc5O)nnc4NC[C@H]3C2)C1)Oc1cc(C(C(=O)N2C[C@H](O)C[C@H]2C(=O)N[C@@H](C)c2ccc(-c3scnc3C)cc2)C(C)C)on1 (stereo partly drawn) [Example 61, (2S,4R)-4-hydroxy-1-(2-(3-((1-(3-((S)-2-(2-hydroxyphenyl)-5,6,6a,7,9,10-hexahydro-8H-pyrazino[1′,2′:4,5]pyrazino[2,3-c]pyridazin-8-yl)pyrrolidin-1-yl)butan-2-yl)oxy)isoxazol-5-yl)-3-methylbutanoyl)-N-((S)-1-(4-(4-methylthiazol-5-yl)phenyl)ethyl)pyrrolidine-2-carboxamide]
–	< 0.1	–	< 0.1	> 75	> 75	Cc1ncsc1-c1ccc([C@H](C)NC(=O)[C@@H]2C[C@@H](O)CN2C(=O)[C@@H](c2cc(OCCN3CCC(CN4CCN5c6cc(-c7ccccc7O)nnc6NC[C@H]5C4)CC3)no2)C(C)C)cc1 [Example 38, (2S,4R)-4-hydroxy-1-((R)-2-(3-(2-(4-(((S)-2-(2-hydroxyphenyl)-5,6,6a,7,9,10-hexahydro-8H-pyrazino[1′,2′:4,5]pyrazino[2,3-c]pyridazin-8-yl)methyl)piperidin-1-yl)ethoxy)isoxazol-5-yl)-3-methylbutanoyl)-N-((S)-1-(4-(4-methylthiazol-5-yl)phenyl)ethyl)pyrrolidine-2-carboxamide]
–	< 0.1	–	0.1 to 1	> 75	50 to 75	Cc1ncsc1-c1ccc([C@H](C)NC(=O)[C@@H]2C[C@@H](O)CN2C(=O)[C@@H](c2cc(O[C@H](C)C(=O)N3CCC(N4CCN5c6cc(-c7ccccc7O)nnc6NC[C@H]5C4)CC3)no2)C(C)C)cc1 [Example 73, (2S,4R)-4-hydroxy-1-((R)-2-(3-(((R)-1-(4-((S)-2-(2-hydroxyphenyl)-5,6,6a,7,9,10-hexahydro-8H-pyrazino[1′,2′:4,5]pyrazino[2,3-c]pyridazin-8-yl)piperidin-1-yl)-1-oxopropan-2-yl)oxy)isoxazol-5-yl)-3-methylbutanoyl)-N-((S)-1-(4-(4-methylthiazol-5-yl)phenyl)ethyl)pyrrolidine-2-carboxamide]
–	< 0.1	–	< 0.1	–	–	Cc1ncsc1-c1ccc([C@H](C)NC(=O)[C@@H]2C[C@@H](O)CN2C(=O)[C@@H](c2cc(OCCN3CCC(N4CCC(N5CCN6c7cc(-c8ccccc8O)nnc7NC[C@H]6C5)C4)CC3)no2)C(C)C)cc1 (single isomer, unassigned) [Example 70]
